In US5223526A, “Pyrazole carboxanilide fungicides and use” (Monsanto Company, priority 1992, dated 1993):

Tests used:
[1] = target: T1, succinate dehydrogenase (Botrytis cinerea, UniProt A0A384J5E4+A0A384J8V8+A0A384JHJ5); experiment: Enzyme inhibition: succinate dehydrogenase activity in Botrytis cinerea mitochondria (DCPIP reduction); assay type: biochemical; details: concentration required to inhibit the rate of DCPIP reduction by 50%; Botrytis cinerea isolate Nick mitochondria; read-out: I50 (μM conc.)
T1 construct: succinate-DCPIP reductase assay with KCN
In short: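 Crude mitochondria from Botrytis cinerea isolate Nick mycelia, prepared by bead-beating and differential centrifugation, started reactions. SDH activity followed as DCPIP reduction at 600 nm in 50 mM K-phosphate pH 7.2 with 1 mM KCN, 45 μM DCPIP, 17 mM succinate, 1% acetone. I50 from semilog inhibition plots, corrected for succinate-free rates.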

[2] = system: Botrytis cinerea; experiment: Eggplant grey mold; assay type: in vivo; parameters: scale not given here; details: inoculated 24 h later, rated after 3-4 days; for Disease Control Rating at 20 ppm: eggplant sprayed with 20 ppm; for Disease Control Rating at 100 ppm: eggplant sprayed with 100 ppm; for Disease Control Rating at 500 ppm: eggplant sprayed with 500 ppm
In short: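 Protective test: compound formulations (2:3 acetone:water, 0.5% Tween 20; 500, 100 or 20 ppm) sprayed on 14-18-day-old plants, with spore inoculum (4×10^6 spore/mL) applied a day later. Disease control rated on Botrytis lesions after 3-4 days at 23 °C and 100% humidity.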

[3] = system: Botrytis cinerea; experiment: Vine grey mold (grape berries); assay type: in vivo; details: average of six berries, 7-10 days; for pest or weed control at 50 ppm: grape berries treated with 50 ppm, read-out: % DISEASE CONTROL 50 ppm; for pest or weed control at 200 ppm: grape berries treated with 200 ppm, read-out: % DISEASE CONTROL 200 ppm
In short: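 Preventive berry test: compound at 50 or 200 ppm (acetone/water, 0.05% Tween 20) applied one day before inoculation with 10^6 spores/mL Botrytis conidia. After 7-10 days at 20 °C under 12 h light, infected surface area rated; disease control expressed as percent reduction from control mean; repeated-test values averaged.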

[4] = system: Rhizoctonia solani; experiment: Rice sheath blight; assay type: in vivo; parameters: scale not given here; details: inoculated two days later, rated after 7 days, average of five plants; for Disease Control Rating at 0.5 mg/mL: foliage and soil sprayed with 0.5 mg/mL; for Disease Control Rating at 0.02 mg/mL: foliage and soil sprayed with 0.02 mg/mL; for Disease Control Rating at 0.1 mg/mL: foliage and soil sprayed with 0.1 mg/mL
In short: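 Rice plants 11–15 days old had foliage and soil sprayed with 0.5, 0.1 or 0.02 mg/mL Compound A in water/acetone/Tween 20, then kept in flooded trays. Two days later, rice-grain Rhizoctonia solani inoculum went to plant bases; disease control scored versus untreated after 7 days at 25 °C, high humidity, averaging five plants.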

T1 sequence (A0A384J5E4 1-300): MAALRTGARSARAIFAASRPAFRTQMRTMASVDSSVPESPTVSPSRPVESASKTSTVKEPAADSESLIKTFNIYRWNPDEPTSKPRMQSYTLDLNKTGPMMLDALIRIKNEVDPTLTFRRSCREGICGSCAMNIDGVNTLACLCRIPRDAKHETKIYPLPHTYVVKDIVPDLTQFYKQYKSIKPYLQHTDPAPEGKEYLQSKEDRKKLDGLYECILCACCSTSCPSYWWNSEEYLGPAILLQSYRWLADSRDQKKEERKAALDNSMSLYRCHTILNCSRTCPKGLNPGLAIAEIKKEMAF
T1 sequence (A0A384J8V8 1-189): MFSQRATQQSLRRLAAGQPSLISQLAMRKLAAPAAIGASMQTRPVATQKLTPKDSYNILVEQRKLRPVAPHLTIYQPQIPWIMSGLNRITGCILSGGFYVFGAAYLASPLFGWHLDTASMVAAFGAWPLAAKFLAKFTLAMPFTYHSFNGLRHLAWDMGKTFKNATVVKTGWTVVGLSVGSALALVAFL
T1 sequence (A0A384JHJ5 1-192): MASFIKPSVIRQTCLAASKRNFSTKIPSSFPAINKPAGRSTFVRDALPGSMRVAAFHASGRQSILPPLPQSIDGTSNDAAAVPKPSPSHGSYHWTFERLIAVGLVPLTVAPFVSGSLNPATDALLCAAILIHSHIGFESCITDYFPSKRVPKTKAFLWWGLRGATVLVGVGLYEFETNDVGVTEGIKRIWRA
T1 sequence (A0A384K456 1-647 partner): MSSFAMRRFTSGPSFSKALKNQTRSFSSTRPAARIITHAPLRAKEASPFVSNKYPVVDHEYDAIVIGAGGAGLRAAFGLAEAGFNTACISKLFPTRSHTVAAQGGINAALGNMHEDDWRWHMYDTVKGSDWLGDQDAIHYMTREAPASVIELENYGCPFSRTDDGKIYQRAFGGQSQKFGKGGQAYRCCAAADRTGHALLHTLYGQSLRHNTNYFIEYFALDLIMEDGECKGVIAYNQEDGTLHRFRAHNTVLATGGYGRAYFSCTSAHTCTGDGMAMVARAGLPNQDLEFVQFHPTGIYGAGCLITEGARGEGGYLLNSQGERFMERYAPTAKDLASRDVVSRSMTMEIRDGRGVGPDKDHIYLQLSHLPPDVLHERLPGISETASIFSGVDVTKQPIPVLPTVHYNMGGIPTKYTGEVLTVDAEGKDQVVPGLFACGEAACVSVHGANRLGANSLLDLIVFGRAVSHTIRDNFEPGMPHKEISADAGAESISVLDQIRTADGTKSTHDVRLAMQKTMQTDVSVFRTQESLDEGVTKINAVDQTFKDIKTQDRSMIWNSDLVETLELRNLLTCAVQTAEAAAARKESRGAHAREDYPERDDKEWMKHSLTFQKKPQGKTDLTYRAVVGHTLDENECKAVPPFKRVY

SMILES | IC50 [1] [µM] | Disease Control Rating at 20 ppm [2] | Disease Control Rating at 100 ppm [2] | Disease Control Rating at 500 ppm [2] | pest or weed control at 50 ppm [3] [%] | pest or weed control at 200 ppm [3] [%] | Disease Control Rating at 0.5 mg/mL [4] | Disease Control Rating at 0.02 mg/mL [4] | Disease Control Rating at 0.1 mg/mL [4]
CC1CC=C(c2ccccc2NC(=O)c2cn(C)nc2C(F)F)C1 (centres unmarked) [Example 149, 1H-pyrazole-4-carboxamide, N-[2-(4-methyl-1-cyclopenten-1-yl)phenyl]-1-methyl-3-(difluoromethyl)-] | 0.013 | 0 | 0 | 1 | 95 | 100 | 3 | – | –
Cn1cc(C(=O)Nc2cccc(F)c2C2CCCCC2)c(C(F)F)n1 [Example 17, 1H-pyrazole-4-carboxamide, N-(2-cyclohexyl-3-fluorophenyl)-3-(difluoromethyl)-1-methyl-] | 0.0063 | 1 | 2 | 2 | 90 | 95 | 3 | – | –
Cc1nn(C)cc1C(=O)Nc1ccccc1C1CCCC1 [Example 6, 1H-pyrazole-4-carboxamide, N-(2-cyclopentylphenyl)-1,3-dimethyl-] | 0.25 | – | – | 1 | 0 | 20 | 1 | 0 | 0
C[C@@H]1CCC[C@H](C)[C@H]1Oc1ccccc1NC(=O)c1cn(C)nc1C(F)(F)F [Example 76, 1H-pyrazole-4-Carboxamide, 1 methyl-N-[2-[(2,6-dimethylcyclohexyl)oxy]phenyl]-3-(trifluoromethyl)-, (1alpha,2beta,6beta)-] | 0.032 | – | – | 0 | 8 | 0 | 0 | – | –
Cn1cc(C(=O)Nc2ccccc2OCC2CCC2)c(C(F)(F)F)n1 [Example 43, 1H-pyrazole-4-carboxamide, N-[2-(cyclobutylmethoxy)phenyl]-1-methyl-3-(trifluoromethyl)-] | 0.38 | – | – | 0 | 3 | 0 | 3 | 2 | 3
Cn1cc(C(=O)Nc2ccccc2C2CCCCCC2)c(Br)n1 [Example 63, 1H-pyrazole-4-carboxamide, 3-bromo-N-(2-cycloheptylphenyl)-1-methyl-] | 0.0063 | – | – | 1 | 34 | 65 | 3 | 2 | 3
Cn1cc(C(=O)Nc2ccccc2CC2CCCCCC2)c(C(F)(F)F)n1 [Example 146, 1H-pyrazole-4-carboxamide, 1-methyl-N-[2-(cycloheptylmethyl)-phenyl]-3-(trifluoromethyl)-] | 0.053 | 0 | 0 | 1 | 0 | 0 | 1 | – | –
Cn1cc(C(=O)Nc2ccccc2C2CCCCCC2)c(Cl)n1 [Example 51, 1H-pyrazole-4-carboxamide, 3-chloro-N-(2-cycloheptylphenyl)-1-methyl-] | 0.023 | – | – | 0 | 16 | 27 | 2 | 0 | 1
Cc1ccc(OC2CCCCC2)c(NC(=O)c2cn(C)nc2C(F)(F)F)c1 [Example 97, 1H-pyrazole-4-carboxamide, N-[2-(cyclohexyloxy)-5-methylphenyl]-1-methyl-3-(trifluoromethyl)-] | 0.59 | 0 | 0 | 1 | 0 | 1 | 0 | – | –
Cn1nc(C(F)F)c(C(=O)Nc2ccccc2C2CCCCCC2)c1Cl [Example 114, 1H-pyrazole-4-carboxamide, 5-chloro-N-(2-cycloheptylphenyl)-3-(difluoromethyl)-1-methyl-] | 0.0036 | 0 | 1 | 2 | 78 | 90 | 3 | 3 | 3
Cc1c(C(=O)Nc2ccccc2[C@@H]2C[C@H]3CC[C@@H]2C3)c(C(F)(F)F)nn1C (relative stereo) [Example 100, 1H-pyrazole-4-carboxamide, N-(2-bicyclo[2.2.1]hept-2-ylphenyl)-1,5-dimethyl-3-(trifluoromethyl)-, exo-] | 0.19 | – | – | 0 | 0 | 22 | 2 | 0 | 1
Cc1ccc(C2CCCCC2)c(NC(=O)c2cn(C)nc2C(F)(F)F)c1 [Example 18, 1H-pyrazole-4-carboxamide, N-(2-cyclohexyl-5-methylphenyl)-1-methyl-3-(trifluoromethyl)-] | 0.031 | – | – | 0 | 0 | 0 | 0 | – | –
Cc1nn(C)c(Cl)c1C(=O)Nc1ccccc1C1CCCCCC1 [Example 107, 1H-pyrazole-4-carboxamide, 5-chloro-N-(2-cycloheptylphenyl)-1,3-dimethyl-] | 0.055 | – | – | 0 | 27 | 49 | 3 | 1 | 3
Cn1cc(C(=O)Nc2ccc(F)cc2C2(C)CCCCC2)c(C(F)F)n1 [Example 95, 1H-pyrazole-4-carboxamide, 3-(difluoromethyl)-N-[4-fluoro-2-(1-methylcyclohexyl)phenyl]-1-methyl-] | 0.64 | – | – | 0 | 48 | 26 | 0 | – | –
Cn1cc(C(=O)Nc2ccccc2C2CCCCCCC2)c(I)n1 [Example 68, 1H-pyrazole-4-carboxamide, N-(2-cyclooctylphenyl)-3-iodo-1-methy1-] | 0.0037 | – | – | 1 | 78 | 89 | 3 | 2 | 3
Cn1cc(C(=O)Nc2ccccc2C2CCCCC2)c(C#N)n1 [Example 4, 1H-pyrazole-4-carboxamide, 3-cyano-N-(2-cyclohexylphenyl)-1-methyl-] | 0.065 | 1 | 2 | 2 | 29 | 58 | 0 | – | –
Cn1cc(C(=O)Nc2ccccc2OCC2CCCC2)c(C(F)F)n1 [Example 46, 1H-pyrazole-4-carboxamide, N-[2-(cyclopentylmethoxy)phenyl]-3-(difluoromethyl)-1-methyl-] | 0.096 | – | – | 0 | 1 | 0 | 3 | 2 | 3
Cn1cc(C(=O)Nc2ccccc2C2(C)CCCC2)c(C(F)(F)F)n1 [Example 67, 1H-pyrazole-4-carboxamide, 1-methyl-N-[2-(1-methylcyclopentyl)phenyl]-3-(trifluoromethyl)-] | 0.056 | 0 | 1 | 2 | 31 | 0 | 2 | – | –
